Patent US5416090A, “Method of treating inflammation” (priority 1992, dated 1995)
Like-named read-outs stand apart in the source and are kept apart here.

Key:
[1] = tested on: delayed type hypersensitivity (picryl chloride induced foot pad swelling); test: Murine delayed type hypersensitivity (DTH) response, picryl chloride; assay type: in vivo, mouse (Balb/c); settings: for inhibition of DTH response: FIG. 8 legend
Procedure: The activity of ergoline compounds was also evaluated in a murine delayed-type hypersensitivity (DTH) assay. The DTH assay was performed in substantial accordance with the method set forth in Example 1. Briefly, mice were sensitized by topical administration of picryl chloride on day 1 of the assay. On day 4 paw size was determined and recorded and the paw was then challenged with picryl chloride. The challenged paw was remeasured on day 5 to quantitate the DTH response via the increase in paw size.
(§1) Male Balb/c mice (Charles River) weighing 20 to 25 g were used in all DTH studies. When adrenalectomized studies were carried out, sham surgery and adrenalectomized mice were obtained from the vendor. Animals were maintained on a 12:12 hour light:dark cycle. Mice were allowed ad lib access for food (Purina lab chow) and water (normal saline for adrenalectomized animals).
(§2) A DTH response was assessed by measuring the degree of rear foot pad swelling induced by picryl chloride. On day 0, mice were sensitized with 100 μl of 5% picryl chloride (in ethanol), which was applied to a shaved abdomen. Negative control groups were shaved but not sensitized. On day 3, mice were anesthetized with methoxyflurane, and the baseline rear foot pad thickness was measured with a micrometer (Mitutoyo) in μ, and was recorded in duplicate. Fifty μl of picryl chloride was then applied to each pad with a pipet (Rainen) while the animal was unconscious. The negative controls also received picryl chloride at this point to control for primary irritancy. Twenty-four hours later, the mice were sacrificed by CO2 asphyxiation and each rear foot pad was again measured in duplicate, and any evidence of foot pad swelling was calculated. The mean rear foot swelling change of both pads for each animal from days 3 to 4 was used as the index of immune function in the DTH assay.
(§3) Unless otherwise stated all animals were given four subcutaneous doses of test compound just prior to picryl chloride sensitization on day 0, on day 1 and day 2, and just prior to picryl chloride challenge on day 3. In a few experiments, compounds were administered via oral or intraperitoneal routes. All drugs were delivered as suspensions in 1% carboxy-methylcellulose (also contained 0.8% NaCl, 1% polysorbate-80, 1.4% benzyl alcohol). Carboxymethyl-cellulose (1%) was used in control injections.

dopamine receptor = test: Affinity at the dopamine receptor; assay type: binding
α adrenergic receptors = settings: background; cited from earlier work
[2] = tested on: carrageenan induced paw swelling; test: Carrageenan edema model (acute paw inflammation); assay type: in vivo, rat (Lewis)
D-2 dopamine = settings: background; cited from earlier work
[3] = tested on: 5-HT induced paw swelling; test: Serotonin (5-HT) induced acute paw inflammation; assay type: in vivo, rat (Lewis); settings: FIG. 2
Procedure: In one such model, the acute paw inflammation model, rats were treated with test compounds one hour prior to plantar injection of a 50 μl volume of a phlogistic. Animals were sacrificed and paw weights were determined at a prescribed time interval following the plantar injections. When 1% carrageenan was used as the phlogistic, the time interval between injection and sacrifice was 3 hours. When serotonin (5-hydroxytryptamine (5-HT)) was used, as the phlogistic agent the time interval was one hour. When substance P was used, the time interval was 30 minutes. The acute paw inflammation model is described in more detail in Example 3.
Male Lewis rats (Charles River or Harlan Sprague Dawley) weighing 180 to 250 g were used in all acute inflammatory studies. Animals were maintained on a 12:12 hour light:dark cycle and were allowed ad lib access for food (Purina lab chow) and water. Experimental groups consisted of 5 or 6 rats.
Acute paw swelling was induced by the intraplantar injection of phlogistic agents into the left hind paw, with the uninjected right hind paw serving as the comparative control. One hour after dosing with test compound, 50 μl of serotonin (Sigma; 0.005 to 0.2 mg/ml in normal saline) or substance P (Sigma; 0.01 or 0.05 mg/ml in 10% thiorphan in normal saline) or carrageenan (Marine Colloidal or Sigma Type IV; 1% in normal saline) were injected under the skin of the left hind paw, while the animal was restrained in a plastic cone. Negative controls were given 50 μl intradermal injections of normal saline (serotonin or carrageenan assays) or 10% thiorphan (substance P assays) into the left hind paw. One hour following injection of serotonin, or 30 minutes following injection of substance P, or 180 minutes following injection of carrageenan, the animals were sacrificed by CO2 asphyxiation. The right and left hind paws were cut just proximal to the tibiotarsal joint and weighed. The difference in weight between an individual animal's left and right paws were used as an indicator of tissue swelling.
As indicated above, test compounds are administered as a one hour pretreatment. In one series of experiments, 24 hour and 48 hour drug pretreatment periods were used. Test compounds were dosed intraperitoneally as a suspension in 1% carboxymethylcellulose.

Parkinsonism = settings: background; cited from earlier work
[4] = tested on: lipoidal amine induced arthritis; test: Lipoidal amine induced polyarthritis (hind paw volume and weight); assay type: in vivo, rat (Lewis); settings: Rattus norvegicus
Procedure: Lipoidal amine induced polyarthritis is an animal arthritis model originally described by Chang, Y., et al. in Arthritis and Rheumatism 23:62-71 (1980). The lipoidal amine induced polyarthritis results from injection of N,N-dioctadecyl-N^1,N-bis(2-hydroxyethyl) propanediamine (7.5 mg/kg Lewis rat (220-225 g)), which is suspended in oil, intradermally at the base of the tail.

[5] = tested on: dopamine receptor (DTH response); test: Reversal of DTH inhibition by dopamine receptor antagonists; assay type: in vivo, mouse
Procedure: as §1, §2, §3

corticosterone = test: Serum/plasma corticosterone levels in mice; assay type: in vivo, mouse (Balb/C); settings: FIG. 10 Panel A; 1 and 3 hr. following injection
From the text: Dopamine agonists are known to elevate circulating glucocorticoid levels, via activation of the hypothalamo-pituitary-adrenal axis. […] Since glucocorticoids are potential endogenous anti-inflammatory substances, this action is one potential mechanism for the anti-inflammatory effect of the ergolines. However, in subsequent inflammation studies, the anti-inflammatory effects of D-1-isopropyl-6-n-propyl-8β-methylthiomethyl ergoline were retained in mice lacking an adrenal gland and therefore devoid of the increase in circulating corticosterone. (FIG. 10B)
Both Balb/C mice (male, approximately 20 g, Charles Rivers) and Lewis rats (male, approximately 200 g, Charles River or Harlan Sprague Dawley) were used in neuroendocrine studies. Animals were maintained on a 12:12 hour light:dark cycle and were allowed ad lib access for food (Purina lab chow) and water. Experimental groups consisted of 6 to 8 animals.
After dosing with test compounds, animals were sacrificed by decapitation at 1, 3, 8 or 24 hour intervals. Trunk blood was collected, allowed to clot and serum obtained after centrifugation (3000 rpm for 15 min.). Serum was aliquoted and stored at -70° C. for subsequent radioimmunoassays. Serum prolactin was determined by radioimmunoassay. Serum corticosterone levels were determined with a kit designed for such determinations and obtained from ICN.

inflammatory models = settings: cited from earlier work
[6] = Table 1, single oral dose 0.3 mg/kg
[7] = Table 1, single oral dose 1.0 mg/kg
[8] = Table 1, single oral dose 3.0 mg/kg
[9] = Table 1, single oral dose 10.0 mg/kg
[10] = Table 2, single oral dose 0.01 mg/kg
[11] = Table 2, single oral dose 0.03 mg/kg
[12] = Table 2, single oral dose 0.1 mg/kg
[13] = Table 2, single oral dose 0.3 mg/kg
[14] = Table 1, single oral dose 30.0 mg/kg
[15] = Table 2, single oral dose 30.0 mg/kg
[16] = Table 2, single oral dose 1.0 mg/kg
[17] = Table 2, single oral dose 3.0 mg/kg

## CCCN1CCC[C@H]2Cc3nc(N)ncc3C[C@@H]21 (racemic) [Compound 8, trans-(±)-2-amino-6-n-propyl-5,5a,6,7,8,9,9a,10-octahydropyrimido[4,5-g] quinoline]
[1]; 1 mg/kg
  reduction of paw swelling (DTH): statistically significant decrease in inflammation
[1]
  inhibition of DTH response: lack of inhibition

## CCCN1CC(CO)=C[C@H]2Cc3n[nH]cc3C[C@@H]21 (relative stereo) [Compound 9, 7-(5-n-propyl-trans-4,4a,5,6,8a,9-hexahydro-2H-pyrazolo[3,4-g)quinoline) methanol]
[1]; 3 mg/kg
  reduction of paw swelling (DTH): statistically significant
[1]; 10 mg/kg
  reduction of paw swelling (DTH): statistically significant
[1]
  inhibition of DTH response: inhibition

## CCCN1C[C@H](CSC)C[C@@H]2c3cccc4[nH]nc(c34)C[C@H]21 [Compound 4, D-2-aza-6-n-propyl-8β-methylthiomethyl ergoline]
[1]; 1 mg/kg
  reduction of paw swelling (DTH): reduced paw swelling
[1]; 3 mg/kg
  reduction of paw swelling (DTH): statistically significant
[1]; 10 mg/kg
  reduction of paw swelling (DTH): statistically significant

## CCCN1CCC[C@H]2Cc3nc(N)ccc3C[C@@H]21 (relative stereo) [Compound 7, trans-(±)-2-amino-6-propyl-5,5a,6,7,8,9,9a,10-octahydropyrido [2-3 g] quinoline]
[1]; 10 mg/kg
  reduction of paw swelling (DTH): statistically significant

## CCCCCN1C[C@H](CSC)C[C@@H]2c3cccc4[nH]cc(c34)C[C@H]21 [D-6-n-pentyl-8β-methylthiomethyl ergoline]
Dopamine receptor
  affinity at the dopamine receptor: minimal affinity
[1]; FIGS. 7-9A studies
  anti-inflammatory activity: no anti-inflammatory activity

## CCCN1C[C@H](CSC)C[C@@H]2c3cccc4[nH]cc(c34)C[C@H]21 [Compound 2]
α adrenergic receptors
  action at α adrenergic receptors: act at α adrenergic receptors
[2]; [6]
  % Inhibition: 60%
  Paw Weight Difference: 0.290 ± 0.028 g
[2]; [7]
  % Inhibition: 60%
  Paw Weight Difference: 0.295 ± 0.019 g
[2]; [8]
  % Inhibition: 60%
  Paw Weight Difference: 0.292 ± 0.017 g
[2]; [9]
  % Inhibition: 60%
  Paw Weight Difference: 0.293 ± 0.018 g
[2]; [10]
  % Inhibition: 1%
  Paw Weight Difference: 0.820 ± 0.033 g
[2]; [11]
  % Inhibition: 0%
  Paw Weight Difference: 1.009 ± 0.056 g
[2]; [12]
  % Inhibition: 11%
  Paw Weight Difference: 0.751 ± 0.045 g
[2]; [13]
  % Inhibition: 63%
  Paw Weight Difference: 0.313 ± 0.045 g
[2]; Tables 1 and 2
  anti-inflammatory properties: significant anti-inflammatory properties
D-2 dopamine
  D-2 dopamine agonist activity: D-2 dopamine agonists
[3]
  effect on 5-HT induced paw swelling: diminish 5-HT induced paw swelling
Parkinsonism
  effect on symptoms of Parkinsonism: effective in the treatment of some symptoms of Parkinsonism
[1]; 1 mg/kg
  reduction of paw swelling (DTH): significantly reduced paw swelling
[1]; 3 mg/kg
  reduction of paw swelling (DTH): significantly reduced paw swelling
[1]; 10 mg/kg
  reduction of paw swelling (DTH): significantly reduced paw swelling
[4]; read-out: dosage giving statistically significant decrease in paw volume, FIG. 1 Panel A
  minimal effective dose: ≥ 3 mg/kg
[4]; read-out: dosage giving statistically significant decrease in paw weight, FIG. 1 Panel B
  minimal effective dose: ≥ 3 mg/kg

## CCN1CCCC1CNC(=O)c1cc(S(N)(=O)=O)ccc1OC (stereo not drawn) [Sulpiride]
[5]; FIG. 9 Panel C, sulpiride 3, 10 and 30 mg/kg
  effect on inflammatory response in animals given 10 mg/kg of compound 10: partially restored the inflammatory response

## CC(C(=O)O)c1cccc(Oc2ccccc2)c1 (stereo not drawn) [Fenoprofen]
[2]; 30 mg/kg
  effectiveness in suppressing inflammation compared with pergolide: not as effective as pergolide
[2]; [14]
  % Inhibition: 52%
  Paw Weight Difference: 0.353 ± 0.043 g
[2]; [15]
  % Inhibition: 55%
  Paw Weight Difference: 0.379 ± 0.028 g

## CCCN1CC(CO)CC2Cc3n[nH]cc3CC21 (stereo not drawn) [Compound 10, 7-(5-n-propyl-trans-4,4a,5,6,7,8,8a, 9-Octahydro-2H-pyrazolo[3,4-g]quinoline) methanol]
corticosterone
  effect on plasma corticosterone: increase plasma cortiosterone
[1]; 3 mg/kg
  reduction of paw swelling (DTH): statistically significant
[1]; 10 mg/kg
  reduction of paw swelling (DTH): statistically significant

## CC(C)CC1C(=O)N2CCCC2C2(O)OC(NC(=O)C3C=C4c5cccc6[nH]c(Br)c(c56)CC4N(C)C3)(C(C)C)C(=O)N12 (stereo not drawn) [Bromocriptine, α-bromo-ergocryptine]
α adrenergic receptors
  action at α adrenergic receptors: act at α adrenergic receptors
Inflammatory models
  basis of activity in inflammatory models of the literature: due to immunosuppressive activity
[2]; [12]
  % Inhibition: 0%
  Paw Weight Difference: 0.923 ± 0.039 g
[2]; [13]
  % Inhibition: 0%
  Paw Weight Difference: 0.937 ± 0.060 g
[2]; [16]
  % Inhibition: 0%
  Paw Weight Difference: 0.803 ± 0.046 g
[2]; [17]
  % Inhibition: 0%
  Paw Weight Difference: 0.931 ± 0.067 g
[2]; doses as high as 3 mg/kg, po
  activity in the acute inflammation model: no activity
D-2 dopamine
  D-2 dopamine agonist activity: D-2 dopamine agonists

## O=c1[nH]c2ccccc2n1CCCN1CCC(n2c(=O)[nH]c3cc(Cl)ccc32)CC1 [Domperidone]
[5]; FIG. 9 Panel B
  effect on anti-inflammatory activity of D-1-isopropyl-6-n-propyl-8β-methylthiomethyl ergoline: reversed the anti-inflammatory activity

## CCCN1CCC[C@H]2Cc3nc(N)sc3C[C@@H]21 (racemic) [Compound 6, trans-(±)-2-amino-5-n-propyl-4,4a,5,6,7,8,8a,9-octahydrothiazolo [4,5-g] quinoline]
[1]; 10 mg/kg
  reduction of paw swelling (DTH): statistically significant
